Assay results as given in article PMC10413441 (Chembiochem : a European journal of chemical biology, 2023).

Columns and labels:
CUTO9 cells = assay: wound-healing assay in CUTO9 cells; assay type: cell-based, human; details: for suppression of cell migration (wound closure) / impact on wound closure: 24 hours; for inhibition at 1 µM: Homo sapiens, 24 h, read-out: inhibition of wound closure
[1] = tested on: YAP1 phosphorylation at S127; assay: immunoblot analysis of Hippo signaling in CUTO9 cells; assay type: cell-based, human; details: 2 hours, brigatinib, lorlatinib 3 μM each, MRT67307 1 μM
A549 NSCLC cells = assay: wound-healing assay in A549 cells; details: for wound closure inhibition: A549 cells (no EML4-ALK, mutant KRAS), 48 hours
MARK2/3 = assay: immunoblotting of cross-competition pulldowns; assay type: binding, human; details: CUTO9 cells pre-treated with 2.5 μM TKI for 24 hours, immunoblot
[2] = cited from earlier work
MARK3 = details: read-out: previously reported in vitro IC50; cited from earlier work
MARK2 = details: read-out: reported in vitro IC50; cited from earlier work

| SMILES | phosphorylation of YAP1 at S127 [1] | competition for binding of MARK2/3 to i-brigatinib beads (MARK2/3) | suppression of cell migration (wound closure) (CUTO9 cells; CUTO9 cells, 3 μM) | inhibition at 1 µM (CUTO9 cells) [%] | wound closure inhibition (A549 NSCLC cells) | impact on wound closure (CUTO9 cells; CUTO9 cells) | also measured |
| --- | --- | --- | --- | --- | --- | --- | --- |
| O=C(NCCCNc1nc(Nc2cccc(CN3CCOCC3)c2)ncc1C1CC1)C1CCC1 [MRT67307] | induced phosphorylation of YAP1 at S127 | – | – | – | – | – | reduction of cell migration (CUTO9 cells; CUTO9 cells, 1 μM): approximately 25%; reduction of cell migration (CUTO9 cells; CUTO9 cells, 3 μM): ~40% |
| CNC(=O)c1ccc(Nc2ncc(C(F)(F)F)c(NCc3nccnc3N(C)S(C)(=O)=O)n2)cc1 [defactinib] | – | – | – | – | – | – | effects on migration (CUTO9 cells; CUTO9 cells): minor, but notable effects; effects on migration (A549 NSCLC cells; A549 cells): minor, but notable effects |
| COc1cc(N2CCC(N3CCN(C)CC3)CC2)ccc1Nc1ncc(Cl)c(Nc2ccccc2P(C)(C)=O)n1 [brigatinib] | induced phosphorylation of YAP1 at S127 | more completely competed | approximately 70% | ~40 | wound closure inhibition observed | – | reported clinically relevant concentration ([2]; clinical): 2.9 µM; Cmax ([2]; read-out: plasma Cmax, reported, no reference given): 2500 nM; IC50 (MARK3): 127 nM; competition for EML4-ALK (EML4-ALK): strongest extent of competition; IC50 (MARK2): 93 nM |
| CCc1cc2c(cc1N1CCC(N3CCOCC3)CC1)C(C)(C)c1[nH]c3cc(C#N)ccc3c1C2=O [alectinib] | – | more completely competed | ~45% | ~30 | wound closure inhibition observed | – | – |
| C[C@@H](Oc1cc(-c2cnn(C3CCNCC3)c2)cnc1N)c1c(Cl)ccc(F)c1Cl [crizotinib] | – | – | – | – | – | no impact on wound closure | – |
| C[C@H]1Oc2cc(cnc2N)-c2c(nn(C)c2C#N)CN(C)C(=O)c2ccc(F)cc21 [lorlatinib] | not observed | – | – | – | – | no impact on wound closure | – |
